Like-named read-outs stand apart in the source and are kept apart here.
Tests used:
[1] = system: KB (oral squamous cell carcinoma); test: sulforhodamine B cell cytotoxicity assay, KB; type: cell-based; conditions: Homo sapiens; Table 2; SRB assay, 48 h of exposure
Description: (§1) The human cancer cell lines—KB (oral squamous cell carcinoma). C33A (cervical carcinoma), MCF-7 (breast adenocarcinoma), A549 (lung carcinoma) and mouse embryo fibroblast (NIH3T3) were obtained from American Type Culture Collection (ATCC), USA. These cells were grown in recommended media supplemented with 10% FBS, 50 μg/mL gentamycin and 2.5 μg/mL amphotericin B in a 5% CO2 humidified atmosphere at 37° C. Cells below 15 passage level were used for this study. A colorimetric sulforhodamine B assay was used for the measurement of cell cytotoxicity. 1×10^4 cells (in 180 μL) were added to each well of 96-well plate and incubated overnight to allow for cell attachment. Cells were then treated with serial two-fold dilutions of test compounds (100 to 1.6 μM) and untreated cells receiving the same volume of medium served as control. After 48 h of exposure, cells were fixed with ice-cold 50% TCA, stained with 0.4% (w/v) SRB in 1% acetic acid, washed and air dried. Bound dye was dissolved in 150 μL of 10 mM tris base. The plates were read at 540 nm absorbance on plate reader (Polarstar Galaxy, BMG, Germany). The cytotoxic effects of compounds were calculated as % inhibition in cell growth as per the formula […].

[2] = system: C33A (cervical carcinoma); test: sulforhodamine B cell cytotoxicity assay, C33A; type: cell-based, human; conditions: Homo sapiens, C-33-A, SRB assay, 48 h of exposure
Description: as §1

[3] = system: MCF-7 (breast adenocarcinoma); test: sulforhodamine B cell cytotoxicity assay, MCF-7; type: cell-based; conditions: Homo sapiens, MCF7; Table 2; SRB assay, 48 h of exposure
Description: as §1

A549 (lung carcinoma) = test: sulforhodamine B cell cytotoxicity assay, A549; type: cell-based; conditions: Homo sapiens, Table 2, SRB assay, 48 h of exposure
Description: as §1

[4] = system: mouse embryo fibroblast (NIH3T3); test: sulforhodamine B cell cytotoxicity assay, NIH3T3 non-cancer cells; type: cell-based; conditions: 48 h of exposure
Description: as §1

[5] = system: HeLa Human cervical cancer cells; test: human tumor xenograft in SCID mice, tumor growth; type: in vivo; conditions: ADR 2 mg/kg I.V. Q7dx3
Description: (§2) The in vivo efficacy studies were performed using human tumor xenografts in SCID mice. Human cervical cancer cells (HeLa) were injected subcutaneously (1×10^7 cells in 100 μl HBSS medium) on the right flank of each mouse. Tumor bearing mice were divided randomly into treatment groups and the treatment schedules began on day 7 of the xenograft. The test compound (S009-0131) was administered orally to each mouse at a daily dose of 100 mg/kg body weight, for 15 days. The standard anti-cancer drug Adriamycin (ADR) was used as ‘positive’ control and given to each mouse as an i.v. dose of 2 mg/kg body weight, Q7d×3 ([…]). The group of vehicle treated animals served as ‘negative’ control.
(§3) The tumor volume, body weight and signs of overt toxicity were monitored and recorded for the entire duration of the experiment (60 days). Tumor volumes were calculated using the formula (a×b2)/2, where a, b are two longest perpendicular diameters. Tumor growth was expressed in terms of relative tumor volume (RTV) which is the ratio of tumor volume on a particular day to the tumor volume on day 1 of the study. Tumor growth inhibition index (T/C) was calculated as follows: T/C=Average RTV of test group mice/Average RTV of control group mice.

[6] = animal weight and overt toxicity in the xenograft study; type: in vivo, SCID mice; conditions: ADR 2 mg/kg I.V. Q7dx3
Description: as §2, §3

[7] = Table 2, read-out: IC50 C33A (Cervical)
[8] = Table 2, SRB assay, read-out: IC50 NIH3T3 (Non-cancer, fibroblast)
[9] = Table 1, read-out: IC50 C33A (cervical cancer)
[10] = Table 1, SRB assay, read-out: IC50 NIH3T3 (mouse fibroblast)

CCOC(=O)c1cc2cc(/C=C/C(=O)c3cc(OC)c(OC)c(OC)c3)cc(C(C)CC)c2oc1=O (centres unmarked) [Example S010-2000, (E)-ethyl 8-sec-butyl-2-oxo-6-(3-oxo-3-(3,4,5-trimethoxyphenyl)prop-1-enyl)-2H-chromene-3-carboxylate]
IC50 [1]: 9.36 µM
IC50 [2, 7]: 5.72 µM
IC50 [3]: 11.5 µM
IC50 (A549 (lung carcinoma)): 11.6 µM
IC50 [4, 8]: > 150 µM
melting point: 128 to 129 °C

CCOC(=O)c1cc2cc(C=O)cc(C(C)CC)c2oc1=O (centres unmarked) [Example S009-0139, Ethyl 8-sec-butyl-6-formyl-2-oxo-2H-chromene-3-carboxylate]
IC50 [1]: 132 µM
IC50 [2, 9]: 64.3 µM
IC50 [2, 7]: 64.3 µM
IC50 [3]: 113 µM
IC50 (A549 (lung carcinoma)): 147 µM
IC50 [4, 10]: > 150 µM
IC50 [4, 8]: > 150 µM
melting point: 89 to 90 °C

COc1cccc2c1C(=O)c1c(O)c3c(c(O)c1C2=O)C[C@@](O)(C(=O)CO)C[C@@H]3O[C@H]1C[C@H](N)[C@H](O)[C@H](C)O1 [Doxorubicin, reference compound]
IC50 [1]: 0.22 µM
IC50 [2, 7]: 0.82 µM
IC50 [3]: 0.61 µM
IC50 (A549 (lung carcinoma)): 0.52 µM
RTV (relative tumor volume) ([5]; day 1): 1
T/C (tumor growth inhibition index) ([5]; day 1): 1
RTV (relative tumor volume) ([5]; day 5): 0.69
T/C (tumor growth inhibition index) ([5]; day 5): 0.53
RTV (relative tumor volume) ([5]; day 9): 0.72
T/C (tumor growth inhibition index) ([5]; day 9): 0.44
RTV (relative tumor volume) ([5]; day 12): 0.92
T/C (tumor growth inhibition index) ([5]; day 12): 0.47
RTV (relative tumor volume) ([5]; day 15): 1.39
T/C (tumor growth inhibition index) ([5]; day 15): 0.43
RTV (relative tumor volume) ([5]; day 19): 1.65
T/C (tumor growth inhibition index) ([5]; day 19): 0.45
RTV (relative tumor volume) ([5]; day 22): 3.52
T/C (tumor growth inhibition index) ([5]; day 22): 0.68
RTV (relative tumor volume) ([5]; day 25): 3.84
T/C (tumor growth inhibition index) ([5]; day 25): 0.62
RTV (relative tumor volume) ([5]; day 29): 4.60
T/C (tumor growth inhibition index) ([5]; day 29): 0.63
RTV (relative tumor volume) ([5]; day 33): 4.69
T/C (tumor growth inhibition index) ([5]; day 33): 0.47
T/C (tumor growth inhibition index) ([5]; day 37): 0.58
T/C (tumor growth inhibition index) ([5]; day 41): 0.49
T/C (tumor growth inhibition index) ([5]; day 44): 0.43
T/C (tumor growth inhibition index) ([5]; day 51): 0.43
Average Animal weight ([6]; day 1): 20.7 grams
Average Animal weight ([6]; day 5): 20.9 grams
Average Animal weight ([6]; day 9): 20.6 grams
Average Animal weight ([6]; day 12): 20.3 grams
Average Animal weight ([6]; day 15): 19.6 grams
Average Animal weight ([6]; day 19): 18.3 grams
Average Animal weight ([6]; day 22): 19.7 grams
Average Animal weight ([6]; day 25): 19.9 grams
Average Animal weight ([6]; day 29): 20.4 grams
Average Animal weight ([6]; day 33): 20.6 grams
Average Animal weight ([6]; day 37): 24.8 grams
Average Animal weight ([6]; day 41): 21.8 grams
Average Animal weight ([6]; day 44): 22.1 grams
Average Animal weight ([6]; day 51): 21.2 grams

CCOC(=O)c1cc2cc(C=CC(=O)c3ccc(Cl)cc3)cc(C(C)CC)c2oc1=O (centres unmarked) [Example S009-0135, Ethyl 8-sec-butyl-6-(3-(4-chlorophenyl)-3-oxoprop-1-enyl)-2-oxo-2H-chromene-3-carboxylate]
IC50 [1]: 14.3 µM
IC50 [2, 7]: 4.54 µM
IC50 [3]: 11.1 µM
IC50 (A549 (lung carcinoma)): 12.8 µM
IC50 [4, 8]: 38.4 µM

CCC(C)c1cc(/C=C/C(=O)c2ccc(C)cc2)cc2cc(C(=O)N(CC)CC)c(=O)oc12 (centres unmarked) [Example S010-1996, (E)-8-sec-butyl-N,N-diethyl-2-oxo-6-(3-oxo-3-p-tolylprop-1-enyl)-2H-chromene-3-carboxamide]
IC50 [1]: 3.55 µM
IC50 [2, 7]: 3.12 µM
IC50 [3]: < 7.01 µM
IC50 (A549 (lung carcinoma)): 3.77 µM
IC50 [4, 8]: > 150 µM
melting point: 146 to 147 °C

CCC(C)c1cc(C=CC(=O)c2ccc(Cl)cc2)cc2cc(C(=O)OC)c(=O)oc12 (centres unmarked) [Example S009-0136, Methyl 8-sec-butyl-6-(3-(4-chlorophenyl)-3-oxoprop-1-enyl)-2-oxo-2H-chromene-3-carboxylate]
IC50 [1]: 28.2 µM
IC50 [2, 7]: 5.9 µM
IC50 [3]: 10.8 µM
IC50 (A549 (lung carcinoma)): 16.7 µM
IC50 [4, 8]: 42.4 µM
melting point: 145 to 146 °C

CCC(C)c1cc(/C=C/C(=O)c2ccc(C)cc2)cc(C=O)c1O (centres unmarked) [Example S008-0392, (E)-3-sec-butyl-2-hydroxy-5-(3-oxo-3-p-tolylprop-1-enyl)benzaldehyde]
IC50 [2, 9]: 10.2 µM
IC50 [4, 10]: 129 µM

CCNC(=O)c1cc2cc(/C=C/C(=O)c3ccc(C)cc3)cc(C(C)CC)c2oc1=O (centres unmarked) [Example S010-1995, (E)-8-sec-butyl-N-ethyl-2-oxo-6-(3-oxo-3-p-tolylprop-1-enyl)-2H-chromene-3-carboxamide]
IC50 [1]: 10.7 µM
IC50 [2, 7]: 5.56 µM
IC50 [3]: 22.2 µM
IC50 (A549 (lung carcinoma)): > 150 µM
IC50 [4, 8]: > 150 µM
melting point: 162 to 163 °C

COC(=O)c1cc2cc(/C=C/C(=O)c3cc(OC)c(OC)c(OC)c3)cc(C(C)(C)C)c2oc1=O [Example S010-2003, (E)-methyl 8-tert-butyl-2-oxo-6-(3-oxo-3-(3,4,5-trimethoxyphenyl)prop-1-enyl)-2H-chromene-3-carboxylate]
IC50 [1]: 8.3 µM
IC50 [2, 7]: 4.99 µM
IC50 [3]: 13.3 µM
IC50 (A549 (lung carcinoma)): 11.1 µM
IC50 [4, 8]: > 150 µM
melting point: 145 to 146 °C

CCN(CC)C(=O)c1cc2cc(/C=C/C(=O)c3ccc(C)cc3)cc(C(C)(C)C)c2oc1=O [Example S010-1992, (E)-8-tert-butyl-N,N-diethyl-2-oxo-6-(3-oxo-3-p-tolylprop-1-enyl)-2H-chromene-3-carboxamide]
IC50 [1]: 2.02 µM
IC50 [2, 7]: 1.53 µM
IC50 [3]: < 7.01 µM
IC50 (A549 (lung carcinoma)): 1.5 µM
IC50 [4, 8]: > 150 µM
melting point: 170 to 171 °C

CCOC(=O)c1cc2cc(C=CC(=O)c3ccccc3)cc(C(C)CC)c2oc1=O (centres unmarked) [Example S009-0132, Ethyl 8-sec-butyl-2-oxo-6-(3-oxo-3-phenylprop-1-enyl)-2H-chromene-3-carboxylate]
IC50 [1]: 10.5 µM
IC50 [2, 7]: 8.12 µM
IC50 [3]: 88.1 µM
IC50 (A549 (lung carcinoma)): 12.9 µM
IC50 [4, 8]: > 150 µM
melting point: 155 to 156 °C

CCC(C)c1cc(C=CC(=O)c2ccccc2)cc2cc(C(=O)OC)c(=O)oc12 (centres unmarked) [Example S009-0133, Methyl 8-sec-butyl-2-oxo-6-(3-oxo-3-phenylprop-1-enyl)-2H-chromene-3-carboxylate]
IC50 [1]: 13.4 µM
IC50 [2, 7]: 6.28 µM
IC50 [3]: 11.4 µM
IC50 (A549 (lung carcinoma)): 10.7 µM
IC50 [4, 8]: > 150 µM
melting point: 139 to 140 °C

Cc1ccc(C(=O)/C=C/c2cc(C(C)(C)C)c3oc(=O)c(C(=O)O)cc3c2)cc1 [Example-9, (E)-8-tert-butyl-2-oxo-6-(3-oxo-3-p-tolylprop-1-enyl)-2H-chromene-3-carboxylic Acid]
melting point: 185 to 186 °C

CCC(C)c1cc(/C=C/C(=O)c2ccc(C)cc2)cc2cc(C(=O)NC)c(=O)oc12 (centres unmarked) [Example S010-1994, (E)-8-sec-butyl-N-methyl-2-oxo-6-(3-oxo-3-p-tolylprop-1-enyl)-2H-chromene-3-carboxamide]
melting point: 215 to 216 °C

CCC(C)c1cc(/C=C/C(=O)c2cc(OC)c(OC)c(OC)c2)cc2cc(C(=O)OC)c(=O)oc12 (centres unmarked) [Example S010-2001, (E)-methyl 8-sec-butyl-2-oxo-6-(3-oxo-3-(3,4,5-trimethoxyphenyl)prop-1-enyl)-2H-chromene-3-carboxylate]
IC50 [1]: 3.1 µM
IC50 [2, 7]: 2.56 µM
IC50 [3]: 10.2 µM
IC50 (A549 (lung carcinoma)): 3.68 µM
IC50 [4, 8]: > 150 µM
melting point: 138 to 139 °C
